From patent US9649279B2, “Fortified micronutrient salt formulations” (Massachusetts Institute of Technology, priority 2013, dated 2017)
“Also recorded” adds a separate entry of the source. Values belong to the molecule of their own block, whether it stands above or below them.

Experiments:
[1] = Vitamin C stability and recovery under cooking conditions; type: physicochemical
Description: Formulations were tested for factors that increase stability and leakage characteristics for particular nutrients.
Ascorbic acid can become oxidixed and hydrolyzed, resulting in reduced bioactivity. Compounds specifically identified as stabilizing ascorbic acid, trans-Ferulic Acid (FA), Caffeic Acid (CA), and p-Coumaric Acid (p-CA), can be used in the particles and matrix to stabilize vitamin C.
To increase the loading of the ascorbic acid in the formulations, large amounts of ascorbic acid need to be added in the initial formulation process. However, the use of large amount of ascorbic acid can lower the pH of the water during the formulation, and this low pH condition can also dissolve the polymer we use to make the microparticles. To avoid this low pH issue, sodium ascorbate, which has equivalent bioactivity as ascorbic acid, can be used. Over 60 wt % of sodium ascorbate (NaAA) can be recovered after 2 hrs heating at 100° C.

[2] = In vitro release of micronutrients from EPO microspheres; type: physicochemical; conditions: for release in SGF / release in SGF after 0.5 hours: SGF at 37° C.; for release in water: water at room temperature and 100° C.
Description: Eight essential micronutrients, presented in Table 3, were encapsulated and their release studied in vitro.
In-house assays were developed for micronutrient detection and determination of encapsulation efficiency and release kinetics.

[3] = enteric coated, three month storage, 25° C./20% RH and 45° C./60% RH; cited from earlier work
[4] = Release of EPO-coated micronutrients in water then SGF (ELISA); type: physicochemical; conditions: for release in SGF / release in water: 5% EPO coating; for release in SGF: SGF at 37° C., after one hour; for release in water: water at 25° C. and 100° C., one hour; for stability in the formulations by ELISA: not degraded or denatured
Description: To mimic food preparation then ingestion, the samples were submerged in 4 mL water (at 25° C. or 100° C.) for one hour and transferred to 4 mL simulated gastric fluid at 37° C. for two hours.

[5] = Vitamin D3 stability and recovery; type: physicochemical
Description: Vitamin D3 is not stable under heat. Alteration involves ring-closure that allows generation of pyro- and isopyro-isomers. […] However, it degraded in water at 100° C. after 2 hours. The recovery of vitamin D3 in water at 100° C. is concentration-dependent. When the starting amount of vitamin D3 increased, the recovery after 2 hours cooking also went up, from 2% (15 μg), to 12% (60 μg), to 40% (240 μg), and to 60% (1 mg). The encapsulation of vitamin D3 in EPO matrix helped to stabilize the vitamin D3. The characteristic absorbance peak of vitamin D3 was preserved in D3-EPO after 100° C. in water for 2 hours. […] With HPLC, the recovery of D3 in D3-EPO was quantified to be around 47%.

[6] = Autoclaving of vitamin B12 in EPO-HA microspheres; type: physicochemical; conditions: 16 psig and 250° F. for 30 minutes
Description: Vitamin B12 was encapsulated in the EPO-HA microspheres and subjected to autoclaving. The autoclaving conditions were 16 psig and 250° F. for 30 minutes. […] Thus, the formulations can survive and prevent the leakage of MNs under autoclaving conditions.

recovered after heating ([1]; 2 hrs heating at 100° C.): Over 60 wt %
Molecule: O=C1O[C@H]([C@@H](O)CO)C([O-])=C1O.[Na+] [NaAA, sodium ascorbate]

release in SGF ([2]; EPO-MS): Complete release
release in water ([2]; EPO-MS): limited release
Molecule: CCCCCCCCCCCCCCCC(=O)OC/C=C(C)/C=C/C=C(C)/C=C/C1=C(C)CCCC1(C)C [Vitamin A, Retinyl Palimitate]
losses of the micronutrient after storage [3]: 50-99%

Molecule: Nc1nc2ncc(CNc3ccc(C(=O)N[C@@H](CCC(=O)O)C(=O)O)cc3)nc2c(=O)[nH]1 [Vitamin B9, folic acid]
release in SGF [4]: near complete release
release in SGF ([4]; listed as B9): released all
release in water [4]: negligible release
release in water ([4]; listed as B9): no release
stability in the formulations by ELISA [4]: stable
release in SGF after 0.5 hours ([2]; EPO-gelatin-microspheres): Complete release
release in 100° C. boiling water ([2]; EPO-gelatin-microspheres, two hours): Slight leakage
release at room temperature ([2]; EPO-gelatin-microspheres, water, room temperature, two hours): Limited release

release in SGF after 0.5 hours ([2]; EPO-MS): Complete release
release in water after two hours ([2]; EPO-MS, room temperature and 100° C. boiling water, two hours): Limited release
release during cooking at 100° C. ([1]; increased concentration of the polymer coating): significantly reduced
Molecule: O=C1O[C@H]([C@@H](O)CO)C(O)=C1O [Vitamin C, Ascorbic acid]

Molecule: C=C1CC[C@H](O)C/C1=C/C=C1\CCC[C@]2(C)[C@@H]([C@H](C)CCCC(C)C)CC[C@@H]12 [Vitamin D3, cholecalciferol]
release in SGF ([2]; EPO-MS): Fast and complete release
release in water ([2]; EPO-MS): slow and limited release
characteristic absorbance peak (UV spectrum) after heating ([5]; 100° C. in water for 2 hours): totally degraded
stability in acidic condition ([5]; SGF (pH=1.2) at 37° C.): stable
stability in water at 100° C. ([5]; water, 100° C., after 2 hours): degraded
stability in water at room temperature ([5]; water, room temperature): stable

stability in the formulations by ELISA [4]: stable
effect of 1% oil during boiling on release ([2]; boiling, two hours, 1% oil added): did not increase release
leakage under autoclaving [6]: No severe leakage
Molecule: Vitamin B12
release in SGF [4]: released all; also recorded: near complete release
release in water [4]: no release; also recorded: negligible release
